Changes are numbered by the printed parent chain.
What was measured:
[1] = target: T1, mutant (M287L) mouse glycine α1 receptor (Mus musculus, UniProt Q64018, M315L); conditions: M287L mutation versus wild-type; cited from earlier work
T1 sequence (Q64018 29-457 M315L): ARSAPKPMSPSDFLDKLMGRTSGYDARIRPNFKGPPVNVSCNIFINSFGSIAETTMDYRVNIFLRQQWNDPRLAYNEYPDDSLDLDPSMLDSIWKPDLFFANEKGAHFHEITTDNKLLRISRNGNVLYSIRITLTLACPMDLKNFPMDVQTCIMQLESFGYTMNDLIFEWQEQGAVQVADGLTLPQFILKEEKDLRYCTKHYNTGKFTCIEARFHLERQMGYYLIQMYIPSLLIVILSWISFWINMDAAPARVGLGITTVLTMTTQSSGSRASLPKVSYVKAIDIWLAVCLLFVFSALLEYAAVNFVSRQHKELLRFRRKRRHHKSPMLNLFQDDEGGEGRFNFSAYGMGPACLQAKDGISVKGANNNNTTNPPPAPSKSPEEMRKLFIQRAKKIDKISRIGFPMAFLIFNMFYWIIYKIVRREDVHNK

[2] = system: uninfected HEK 293T cells; conditions: uninfected HEK 293T cells (N=4)
Experimental: Human embryonic kidney (HEK) 293T cells were maintained as previously described (Qian et al., J. Physiol., 562, 319-31 (2005)). For recordings, HEK 293T cells were plated onto glass coverslips pretreated with poly-D-lysine (0.1 mg/ml) and rat-tail collagen (0.1 mg/ml; BD Biosciences, San Jose, Calif.) in 35 mm culture dishes at 1-2×10^5 cells per dish. 24 hours after plating, the cells were infected with the GlyR-HSV construct. For infections the growth medium was removed, the cells were washed twice with serum free growth medium, and vHGlyRα1 was added at a multiplicity of infection (MOI) of 10. The cells were then incubated at 37° C. for 1 hour. Following incubation, 1.5 ml of growth medium (with serum) was added and the cells were incubated for an additional 24 hours at 37° C. Recordings were then performed 24 hours post-infection at room temperature. Glycine-mediated whole-cell currents were recorded with an Axopatch 200 amplifier (Molecular Devices, Union City, Calif.) in voltage-clamp mode. […] Data were recorded with a Digidata 1322A digitizer under the control of pClamp 9.2 software (Molecular Devices) and all analyses were performed with Clampfit 9.2 (Molecular Devices) or Origin 7.0 (OriginLab, Northampton, Mass.). Percent desensitization was measured as 100×(1−ISS/Ipeak), where ISS and IPeak are the amplitudes of current at steady state and peak, respectively.

[3] = system: formalin-induced nociceptive behavior; assay: rat formalin model of pain; type: in vivo
Experimental: For in vivo studies, rats were subcutaneously injected with vHGlyRα1 or vHG, a control vector without al GlyR, into the plantar surface of the right hind foot. Analgesic effects of viral injections were assessed one week later by subcutaneous injection of formalin.
Specifically, 3-month-old male Sprague-Dawley rats (225-250 g) were injected with 200 μl (1×10^8 plaque forming units) of either vHGlyRα1 or vHG into the plantar surface of the right hind foot. One week later the analgesic properties of the vectors was assessed by subcutaneously injecting 50 μl of 2.5% formalin into the right hind foot and assessing pain-related behaviors as previously described (Goss et al., Gene Ther., 8, 551-6 (2001)). […] The beginning of second phase pain varied between animals from 20 to 40 minutes; this variation was independent of the vector used.

[4] = target: T2, vHGlyRα1 infected HEK 293T cells (Homo sapiens, UniProt P23415); assay: glycine-mediated whole-cell currents, voltage-clamp recording; type: cell-based; conditions: for mean peak current: 24 hours post-infection, MOI 10; for percent desensitization: 100×(1−ISS/Ipeak)
T2 construct: expressed in transfected cells; host or cells: HEK 293T cells infected with replication-defective HSV vector vHGlyRα1 (HCMV promoter), MOI 10
T2 sequence (P23415 29-457): T1 sequence (Q64018 29-457 M315L) with L287M, D334E, G337A, N368S, K429Q
Experimental: Human embryonic kidney (HEK) 293T cells were maintained as previously described (Qian et al., J. Physiol., 562, 319-31 (2005)). For recordings, HEK 293T cells were plated onto glass coverslips pretreated with poly-D-lysine (0.1 mg/ml) and rat-tail collagen (0.1 mg/ml; BD Biosciences, San Jose, Calif.) in 35 mm culture dishes at 1-2×10^5 cells per dish. 24 hours after plating, the cells were infected with the GlyR-HSV construct. For infections the growth medium was removed, the cells were washed twice with serum free growth medium, and vHGlyRα1 was added at a multiplicity of infection (MOI) of 10. The cells were then incubated at 37° C. for 1 hour. Following incubation, 1.5 ml of growth medium (with serum) was added and the cells were incubated for an additional 24 hours at 37° C. Recordings were then performed 24 hours post-infection at room temperature. Glycine-mediated whole-cell currents were recorded with an Axopatch 200 amplifier (Molecular Devices, Union City, Calif.) in voltage-clamp mode. Solutions were delivered via an in-house fabricated fast perfusion system (Qian et al., J. Physiol., 538, 65-77 (2002)). The external solution contains (in mM): 140 NaCl, 5 KCl, 2 CaCl2), 1 MgCl2, and 10 HEPES; pH is 7.2+0.05, adjusted with NaOH and osmolality 290+10 adjusted with sucrose as needed. The internal solution contains (in mM): 140 CsCl, 1 CaCl2), 1 MgCl2, 2 MgATP, 10 HEPES, and 10 EGTA; pH is 7.3+0.05, adjusted with CsOH and osmolality 300+0.05. Data were recorded with a Digidata 1322A digitizer under the control of pClamp 9.2 software (Molecular Devices) and all analyses were performed with Clampfit 9.2 (Molecular Devices) or Origin 7.0 (OriginLab, Northampton, Mass.). Percent desensitization was measured as 100×(1−ISS/Ipeak), where ISS and IPeak are the amplitudes of current at steady state and peak, respectively.

[5] = higher glycine concentration (1 mM)
[6] = lower glycine concentration (50 uM)

FC(F)OC(F)(F)C(F)Cl (stereo not shown) [enflurane]
sensitivity of the receptor to the volatile anesthetic [1]: greatly enhanced sensitivity

NCC(=O)O [glycine]
current response to application of glycine [2]: failed to elicit a current response | nociceptive behavior following glycine application ([3]; vHG transfected animals (control vector)): small, transient, non-significant dip | second phase pain following injection of glycine ([3]; vHGlyRα1-infected animals, 50 μl of 100 mM glycine at the 30 minute time point): significantly reduced | mean peak current ([4]; 50 uM glycine): −3.57+0.59 nA | mean peak current ([4]; 1 mM glycine): −9.25+1.47 nA | 10-90% rise time [4, 5]: 11.4 ± 1.0 ms | percent desensitization [4, 5]: 89.8+1.1% | 10-90% rise time [4, 6]: 265.2 ± 79.1 ms | percent desensitization [4, 6]: 73.4+7.3%

Reference: patent US11725038B2 (priority 2007, dated 2023)
